Reference: publication PMC7339578, “Multiple circulating alkaloids and saponins from intravenous Kang-Ai injection inhibit human cytochrome P450 and UDP-glucuronosyltransferase isozymes: potential drug–drug interactions” (Chinese Medicine, 2020)
Like-named read-outs stand apart in the source and are kept apart here.

Legend:
[1] = Stability tests of analytes in rat plasma QC samples; type: in vitro ADME; conditions: rat plasma
Procedure: […] The dilution integrity was investigated by analyzing six replicate samples with each analyte, and each analyte were diluted 10-fold with blank rat matrix. Furthermore, the diluted samples were analyzed using freshly prepared calibration curve to calculate RE and RSD, which should be no more than ± 15% as criterion.

[2] = Plasma pharmacokinetics in rats after a 30-min intravenous infusion of Kang-Ai injection; type: in vivo, Sprague–Dawley rats; conditions: for Cmax: read-out: Cmax
Procedure: Specific pathogen free (SPF) grade male Sprague–Dawley rats (250 ± 20) g were provided by the Experimental Animal Center of Zhengzhou University (Zhengzhou, China). These rats were kept in a designated animal room at constant temperature (22 ± 2) °C and humidity (50 ± 20) % with 12 h of light/dark per day and free access to water and food. All protocols of animal experiments were approved in accordance with the Regulations of Experimental Animal Administration issued by the Ethics Review Committee for Animal Experimentation of Jinan University (Ethical Review NO. 20190301010). Prior to the experiments, the rats were fasted for 12 h but with free access to water. After study use, the rats were euthanized with CO2 gas.
The rats in this study all received a single 30-min intravenous infusion of Kang-Ai injection via the tail veins using TYD01-02 infusion pumps (Lead Fluid, Baoding, China). The dose was derived from the label daily dose of Kang-Ai injection (60 mL/person, once daily) according to dose normalization by body surface area. For plasma pharmacokinetic studies, the rats were randomly received a single intravenous 30 min-bolus dose at 6 mL/kg. Blood samples (100 μL) were collected from the rats’ external jugular veins into heparinized polypropylene tubes at 5, 15, 30, 45 min, and 1, 1.5, 2, 3, 4, 6, 8, 12 h. After gently shaking for 10 s, the blood samples were centrifuged at 13000 g for 10 min to yield plasma samples, which were kept frozen at − 80 °C until analysis.
(§1) Pharmacokinetic parameters were estimated by non-compartmental analysis using WinNonlin 6.3 software (Pharsight, NC, US). Data are presented as the mean ± SD (n = 3). The area under the concentration–time curve up to the last measured point in time (AUC0-t) was calculated using the trapezoidal rule. The total plasma clearance (CLtot, p) was calculated by dividing the compound dose by the AUC0-∞, and the distribution volume at steady state (VSS) was estimated by multiplying the CLtot, p by the mean residence time (MRT). The renal excretory clearance (CLR) and hepatobiliary (CLB) was determined by dividing the cumulative amount excreted into urine (Cum.Ae-U) and bile (Cum.Ae-B) by the plasma AUC0-∞, respectively. The fractions of dose excreted into urine (fe-U) and the fractions of dose excreted into bile (fe-B) were established using the relationship Cum.Ae-U/Dose and Cum.Ae-B/Dose, respectively. Mean differences between treatment and control groups were analyzed by two-tailed unpaired Student’s t test by Graphpad Prism V5 software (SanDiego, CA). The level of significance was set at p < 0.05 (∗), p < 0.01 (∗∗) or p < 0.001 (∗∗∗).

[3] = Urinary (renal) excretion in rats after a 30-min infusion of Kang-Ai injection; type: in vivo, Sprague–Dawley rats; conditions: Kang-Ai injection 6 mL/kg iv; for fe-U,0–12h (fraction of dose excreted into urine): rat urine 0–12 h
Procedure: For urine sampling, the rats were housed singly in metabolic cages. And then, the urine samples were collected at 0–4, 4–8 and 8–12 h after starting infusion and were weighed. Likewise, bile samples were also collected at 0–3, 3–6, 6–9 and 9–12 h after starting infusion and were weighed. The urine and bile collection tubes were all frozen at − 80 °C.
as §1

[4] = Protein binding assay (equilibrium dialysis); type: in vitro ADME, rat; conditions: rat plasma
Procedure: Binding of circulating alkaloids and saponins to rat plasma was measured by equilibrium dialysis using Spectra/Por 2 dialysis membranes (molecular weight cutoff, 12–14 kDa; Rancho Dominguez, CA, USA) as described. After equilibrating for 24 h at 55 rpm and 37 °C, the dialysate and the plasma were sampled for analysis. […] The concentrations of tested matrine, oxysophocarpine and oxymatrine were 2 μmol/L, while those of astragaloside IV, III, and ginsenosides Rh1, Rg2, Rg1, Rf, Re, Rd, Rc, Rb1, Rb2, notoginsenosides R1, R2, were 4 μmol/L. The unbound fraction (fu-plasma) in rat plasma was calculated as follow: fu-plasma = Cd/Cp × 100%, where the Cd and Cp values were the concentrations of each analyte in the dialysate sample and in the post-dialysis plasma sample, respectively.

[5] = rat plasma, 30-min iv infusion of Kang-Ai injection 6 mL/kg

## CC(C)=CCC[C@](C)(O[C@@H]1O[C@H](CO[C@@H]2OC[C@H](O)[C@H](O)[C@H]2O)[C@@H](O)[C@H](O)[C@H]1O)[C@H]1CC[C@]2(C)[C@@H]1[C@H](O)C[C@@H]1[C@@]3(C)CC[C@H](O[C@@H]4O[C@H](CO)[C@@H](O)[C@H](O)[C@H]4O[C@@H]4O[C@H](CO)[C@@H](O)[C@H](O)[C@H]4O)C(C)(C)[C@@H]3CC[C@]12C [Compound D4, Ginsenoside Rb2]
[1]; nominal conc. 20 nM
  At -80 °C for 48 h, Mean±SD: 20.39 ± 1.54 nM
  At -80 °C for 48 h, RE: -6.96%
  Extracted samples at 8 °C for 18 h, Mean±SD: 19.58 ± 2.21 nM
  Extracted samples at 8 °C for 18 h, RE: -12.48%
  Short-term stability at room temperature for 6 h, Mean±SD: 20.28 ± 1.99 nM
  Short-term stability at room temperature for 6 h, RE: 10.37%
  Three freeze-thaw cycles (-80 °C ↔ 23 °C), Mean±SD: 20.89 ± 1.50 nM
  Three freeze-thaw cycles (-80 °C ↔ 23 °C), RE: 11.32%
[1]; nominal conc. 100 nM
  At -80 °C for 48 h, Mean±SD: 95.34 ± 8.02 nM
  At -80 °C for 48 h, RE: -12.47%
  Extracted samples at 8 °C for 18 h, Mean±SD: 96.04 ± 12.11 nM
  Extracted samples at 8 °C for 18 h, RE: -10.99%
  Short-term stability at room temperature for 6 h, Mean±SD: 88.84 ± 2.61 nM
  Short-term stability at room temperature for 6 h, RE: -13.48%
  Three freeze-thaw cycles (-80 °C ↔ 23 °C), Mean±SD: 104.61 ± 9.20 nM
  Three freeze-thaw cycles (-80 °C ↔ 23 °C), RE: 10.55%
[1]; nominal conc. 400 nM
  At -80 °C for 48 h, Mean±SD: 423.10 ± 46.59 nM
  At -80 °C for 48 h, RE: 12.64%
  Extracted samples at 8 °C for 18 h, Mean±SD: 434.41 ± 11.65 nM
  Extracted samples at 8 °C for 18 h, RE: 11.01%
  Short-term stability at room temperature for 6 h, Mean±SD: 352.24 ± 2.93 nM
  Short-term stability at room temperature for 6 h, RE: -12.50%
  Three freeze-thaw cycles (-80 °C ↔ 23 °C), Mean±SD: 440.44 ± 2.62 nM
  Three freeze-thaw cycles (-80 °C ↔ 23 °C), RE: 13.72%
[2]; male, Sprague-Dawley, plasma, rat, 30-min iv infusion of Kang-Ai injection 6 mL/kg, Table 1 unit, read-out: CLtot, p (converted)
  clearance: 0.13 mL/min
[2]; male, Sprague-Dawley, plasma, rat, 30-min iv infusion of Kang-Ai injection 6 mL/kg, Table 1 unit, read-out: VSS
  Vd: 0.0396 ± 0.0073 L
[2]; male, Sprague-Dawley, rat plasma, 30-min iv infusion of Kang-Ai injection 6 mL/kg
  Cmax: 301 ± 34.2 nM
[2]; male, Sprague-Dawley, rat plasma, 30-min iv infusion of Kang-Ai injection 6 mL/kg, read-out: t1/2 (converted)
  half-life: 247 ± 49.8 min
[3]; male, Sprague-Dawley, urine and plasma, rat, read-out: CLR (renal excretory clearance) (converted)
  CL renal: 0.0357 mL/min
[3]
  fe-U,0–12h (fraction of dose excreted into urine): 27.80 ± 4.47%
[4]; equilibrium dialysis 24 h, 37 °C, 2 μmol/L alkaloids, 4 μmol/L saponins, read-out: fu-plasma (unbound fraction)
  fraction unbound at 24 h: 0.0067 ± 0.0005

## CC(C)(O)[C@@H]1CC[C@](C)([C@H]2[C@@H](O)C[C@@]3(C)[C@@H]4C[C@H](O)[C@H]5C(C)(C)[C@@H](O[C@@H]6OC[C@@H](O)[C@H](O)[C@H]6O[C@@H]6O[C@H](CO)[C@@H](O)[C@H](O)[C@H]6O)CC[C@@]56C[C@@]46CC[C@]23C)O1 [Compound B3, Astragaloside III]
[1]; nominal conc. 20 nM
  At -80 °C for 48 h, Mean±SD: 19.85 ± 0.45 nM
  At -80 °C for 48 h, RE: -3.31%
  Extracted samples at 8 °C for 18 h, Mean±SD: 17.98 ± 1.29 nM
  Extracted samples at 8 °C for 18 h, RE: -14.29%
  Short-term stability at room temperature for 6 h, Mean±SD: 19.47 ± 1.70 nM
  Short-term stability at room temperature for 6 h, RE: -12.31%
  Three freeze-thaw cycles (-80 °C ↔ 23 °C), Mean±SD: 19.24 ± 0.59 nM
  Three freeze-thaw cycles (-80 °C ↔ 23 °C), RE: -6.46%
[1]; nominal conc. 100 nM
  At -80 °C for 48 h, Mean±SD: 89.68 ± 4.10 nM
  At -80 °C for 48 h, RE: -13.24%
  Extracted samples at 8 °C for 18 h, Mean±SD: 99.17 ± 12.67 nM
  Extracted samples at 8 °C for 18 h, RE: 13.54%
  Short-term stability at room temperature for 6 h, Mean±SD: 91.15 ± 3.72 nM
  Short-term stability at room temperature for 6 h, RE: -13.15%
  Three freeze-thaw cycles (-80 °C ↔ 23 °C), Mean±SD: 103.49 ± 8.05 nM
  Three freeze-thaw cycles (-80 °C ↔ 23 °C), RE: 9.29%
[1]; nominal conc. 400 nM
  At -80 °C for 48 h, Mean±SD: 431.79 ± 15.31 nM
  At -80 °C for 48 h, RE: 12.29%
  Extracted samples at 8 °C for 18 h, Mean±SD: 400.78 ± 32.83 nM
  Extracted samples at 8 °C for 18 h, RE: -8.93%
  Short-term stability at room temperature for 6 h, Mean±SD: 348.69 ± 3.47 nM
  Short-term stability at room temperature for 6 h, RE: -13.71%
  Three freeze-thaw cycles (-80 °C ↔ 23 °C), Mean±SD: 387.44 ± 17.00 nM
  Three freeze-thaw cycles (-80 °C ↔ 23 °C), RE: -6.84%
[2]; [5]
  AUC0–12h: 34.29 ± 5.22 nmol·h/L
  t1/2: 19.8 ± 7.8 min
  Cmax: 54.8 ± 10.2 nM
[2]; rat, Kang-Ai injection 6 mL/kg iv
  VSS (Vd): < 100 mL/kg
[3]
  fe-U,0–12h (fraction of dose excreted into urine): 2.60 ± 0.69%
[4]; equilibrium dialysis
  bound in rat plasma: ~90%
[4]; equilibrium dialysis 24 h, 37 °C, 2 μmol/L alkaloids, 4 μmol/L saponins
  fu-plasma (unbound fraction): 11.04 ± 0.86%
